Assay results reported in PubChem BioAssay (NCI).
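Five concentrations, 48 hours, 96-well plates. At the TGI there is no net growth.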

These molecules were tested on HCC-2998 colon (assay: DTP human tumour cell line panel, 48 h).

SMILES | TGI
COC(=O)C(C(=O)C(=O)Nc1cccc(OC)c1)c1cnc2ccccc2n1 (configuration not stated) | > 100 µM
O=C(O)CNc1cc(-c2ccccc2)nc(NCC(=O)O)n1 | > 100 µM
O=c1nc2occc2cn1C1CC(O)C(CO)O1 (configuration not stated) | > 100 µM
COC(=O)C12C3C4C1C1C2C3C41C(=O)OC(C)(C)C (configuration not stated) | > 100 µM

The molecules below were run on SK-OV-3 ovarian (assay: DTP human tumour cell line panel, 48 h).

SMILES | TGI
COC(=O)C(C(=O)C(=O)Nc1cccc(OC)c1)c1cnc2ccccc2n1 (configuration not stated) | > 100 µM
O=C(O)CNc1cc(-c2ccccc2)nc(NCC(=O)O)n1 | > 100 µM
O=c1nc2occc2cn1C1CC(O)C(CO)O1 (configuration not stated) | > 100 µM
COC(=O)C12C3C4C1C1C2C3C41C(=O)OC(C)(C)C (configuration not stated) | > 100 µM

Each molecule was assayed on DLD-1 colon (assay: DTP human tumour cell line panel, 48 h).

SMILES | TGI
COC(=O)C(C(=O)C(=O)Nc1cccc(OC)c1)c1cnc2ccccc2n1 (configuration not stated) | > 100 µM
O=C(O)CNc1cc(-c2ccccc2)nc(NCC(=O)O)n1 | > 100 µM
O=c1nc2occc2cn1C1CC(O)C(CO)O1 (configuration not stated) | > 100 µM
COC(=O)C12C3C4C1C1C2C3C41C(=O)OC(C)(C)C (configuration not stated) | > 72.3 µM

Each molecule was assayed on OVCAR-4 ovarian (assay: DTP human tumour cell line panel, 48 h).

SMILES | TGI
COC(=O)C(C(=O)C(=O)Nc1cccc(OC)c1)c1cnc2ccccc2n1 (configuration not stated) | > 100 µM
O=C(O)CNc1cc(-c2ccccc2)nc(NCC(=O)O)n1 | > 100 µM
O=c1nc2occc2cn1C1CC(O)C(CO)O1 (configuration not stated) | > 100 µM
COC(=O)C12C3C4C1C1C2C3C41C(=O)OC(C)(C)C (configuration not stated) | > 100 µM

What follows are molecules tested on HCT-116 colon (assay: DTP human tumour cell line panel, 48 h).

SMILES | TGI
COC(=O)C(C(=O)C(=O)Nc1cccc(OC)c1)c1cnc2ccccc2n1 (configuration not stated) | > 100 µM
O=C(O)CNc1cc(-c2ccccc2)nc(NCC(=O)O)n1 | > 100 µM
O=c1nc2occc2cn1C1CC(O)C(CO)O1 (configuration not stated) | > 100 µM
COC(=O)C12C3C4C1C1C2C3C41C(=O)OC(C)(C)C (configuration not stated) | 70.3 µM

The molecules below were run on NCI-H460 lung (assay: DTP human tumour cell line panel, 48 h).

SMILES | TGI
COC(=O)C(C(=O)C(=O)Nc1cccc(OC)c1)c1cnc2ccccc2n1 (configuration not stated) | > 100 µM
O=C(O)CNc1cc(-c2ccccc2)nc(NCC(=O)O)n1 | > 100 µM
O=c1nc2occc2cn1C1CC(O)C(CO)O1 (configuration not stated) | > 100 µM
COC(=O)C12C3C4C1C1C2C3C41C(=O)OC(C)(C)C (configuration not stated) | > 100 µM

The molecules below were run on DMS 114 small cell lung (assay: DTP human tumour cell line panel, 48 h).

SMILES | TGI
COC(=O)C(C(=O)C(=O)Nc1cccc(OC)c1)c1cnc2ccccc2n1 (configuration not stated) | > 100 µM
O=C(O)CNc1cc(-c2ccccc2)nc(NCC(=O)O)n1 | > 100 µM
O=c1nc2occc2cn1C1CC(O)C(CO)O1 (configuration not stated) | > 100 µM
COC(=O)C12C3C4C1C1C2C3C41C(=O)OC(C)(C)C (configuration not stated) | > 67.4 µM

The molecules below were run on SNB-19 CNS (assay: DTP human tumour cell line panel, 48 h).

SMILES | TGI
COC(=O)C(C(=O)C(=O)Nc1cccc(OC)c1)c1cnc2ccccc2n1 (configuration not stated) | > 100 µM
O=C(O)CNc1cc(-c2ccccc2)nc(NCC(=O)O)n1 | > 100 µM
O=c1nc2occc2cn1C1CC(O)C(CO)O1 (configuration not stated) | > 100 µM
COC(=O)C12C3C4C1C1C2C3C41C(=O)OC(C)(C)C (configuration not stated) | > 100 µM

Each molecule was assayed on COLO 205 colon (assay: DTP human tumour cell line panel, 48 h).

SMILES | TGI
COC(=O)C(C(=O)C(=O)Nc1cccc(OC)c1)c1cnc2ccccc2n1 (configuration not stated) | > 100 µM
O=C(O)CNc1cc(-c2ccccc2)nc(NCC(=O)O)n1 | > 100 µM
O=c1nc2occc2cn1C1CC(O)C(CO)O1 (configuration not stated) | > 100 µM
COC(=O)C12C3C4C1C1C2C3C41C(=O)OC(C)(C)C (configuration not stated) | > 100 µM

Each molecule was assayed on M14 melanoma (assay: DTP human tumour cell line panel, 48 h).

SMILES | TGI
COC(=O)C(C(=O)C(=O)Nc1cccc(OC)c1)c1cnc2ccccc2n1 (configuration not stated) | > 100 µM
O=C(O)CNc1cc(-c2ccccc2)nc(NCC(=O)O)n1 | > 100 µM
O=c1nc2occc2cn1C1CC(O)C(CO)O1 (configuration not stated) | > 100 µM
COC(=O)C12C3C4C1C1C2C3C41C(=O)OC(C)(C)C (configuration not stated) | > 100 µM

Each molecule was assayed on IGROV1 ovarian (assay: DTP human tumour cell line panel, 48 h).

SMILES | TGI
COC(=O)C(C(=O)C(=O)Nc1cccc(OC)c1)c1cnc2ccccc2n1 (configuration not stated) | > 100 µM
O=C(O)CNc1cc(-c2ccccc2)nc(NCC(=O)O)n1 | > 100 µM
O=c1nc2occc2cn1C1CC(O)C(CO)O1 (configuration not stated) | > 100 µM
COC(=O)C12C3C4C1C1C2C3C41C(=O)OC(C)(C)C (configuration not stated) | > 100 µM

These molecules were tested on HCT-15 colon (assay: DTP human tumour cell line panel, 48 h).

SMILES | TGI
COC(=O)C(C(=O)C(=O)Nc1cccc(OC)c1)c1cnc2ccccc2n1 (configuration not stated) | > 100 µM
O=C(O)CNc1cc(-c2ccccc2)nc(NCC(=O)O)n1 | > 100 µM
O=c1nc2occc2cn1C1CC(O)C(CO)O1 (configuration not stated) | > 100 µM
COC(=O)C12C3C4C1C1C2C3C41C(=O)OC(C)(C)C (configuration not stated) | > 100 µM

What follows are molecules tested on ACHN renal (assay: DTP human tumour cell line panel, 48 h).

SMILES | TGI
COC(=O)C(C(=O)C(=O)Nc1cccc(OC)c1)c1cnc2ccccc2n1 (configuration not stated) | > 100 µM
O=C(O)CNc1cc(-c2ccccc2)nc(NCC(=O)O)n1 | > 100 µM
O=c1nc2occc2cn1C1CC(O)C(CO)O1 (configuration not stated) | > 100 µM
COC(=O)C12C3C4C1C1C2C3C41C(=O)OC(C)(C)C (configuration not stated) | > 100 µM

Each molecule was assayed on U251 CNS (assay: DTP human tumour cell line panel, 48 h).

SMILES | TGI
COC(=O)C(C(=O)C(=O)Nc1cccc(OC)c1)c1cnc2ccccc2n1 (configuration not stated) | > 100 µM
O=C(O)CNc1cc(-c2ccccc2)nc(NCC(=O)O)n1 | > 100 µM
O=c1nc2occc2cn1C1CC(O)C(CO)O1 (configuration not stated) | > 100 µM
COC(=O)C12C3C4C1C1C2C3C41C(=O)OC(C)(C)C (configuration not stated) | > 100 µM

Each molecule was assayed on NCI-H522 lung (assay: DTP human tumour cell line panel, 48 h).

SMILES | TGI
COC(=O)C(C(=O)C(=O)Nc1cccc(OC)c1)c1cnc2ccccc2n1 (configuration not stated) | > 100 µM
